The target of assay [1] is α-Glucosidase (EC 3.2.1.20). The assay can be described thus: Assay of α-glucosidase. The settings on record: read-out: Inhibition (IC50) α-Glucosidase; isolated compounds; pNPG substrate, pH 6.8, 37°C; mean±SD of triplicate. The format is biochemical.
The target of assay [2] is mushroom tyrosinase (EC 1.14.18.1) (Agaricus bisporus, UniProt C7FF04). The assay can be described thus: Assay of tyrosinase. The assay is classed as biochemical.
mushroom tyrosinase (EC 1.14.18.1), sequence (C7FF04 1-392 limits assumed): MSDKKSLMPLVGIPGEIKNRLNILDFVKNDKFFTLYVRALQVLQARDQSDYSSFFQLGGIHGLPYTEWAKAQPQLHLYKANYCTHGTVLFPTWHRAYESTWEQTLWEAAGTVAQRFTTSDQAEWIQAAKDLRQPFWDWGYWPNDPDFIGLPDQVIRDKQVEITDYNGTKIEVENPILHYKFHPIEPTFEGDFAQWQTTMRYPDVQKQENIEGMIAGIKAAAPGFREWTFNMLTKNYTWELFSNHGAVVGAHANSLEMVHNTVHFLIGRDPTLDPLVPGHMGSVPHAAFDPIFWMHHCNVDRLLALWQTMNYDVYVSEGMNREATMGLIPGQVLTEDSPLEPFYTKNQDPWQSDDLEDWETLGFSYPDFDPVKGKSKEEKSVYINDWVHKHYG

Regarding `CC(C)=CCc1c(O)ccc(C(=O)[C@H]2[C@@H](c3c(O)cc(-c4cc5ccc(O)cc5o4)cc3O)C=C(C)C[C@@H]2c2ccc(O)cc2O)c1O` [CMC, chalcomoracin], the IC50 in assay [1] came to 6 ± 0.46 µM; in assay [2] it was 5.61 ± 0.2 µM.

Turning to `Oc1cc(O)cc(-c2cc3ccc(O)cc3o2)c1` [MCM, moracin M], the IC50 in assay [1] worked out at 168 ± 2.44 µM; in assay [2], 17.2 ± 0.37 µM.

For the compound `CC(C)=CCc1c(O)cc(-c2cc3ccc(O)cc3o2)cc1O` [MCC, moracin C], the IC50 was determined as 88.8 ± 1.32 µM in assay [1] and 37.9 ± 0.42 µM in assay [2].

As to `CC(C)=CCc1cc2cc(-c3cc(O)cc(O)c3)oc2cc1O` [MCN, moracin N], the 50% inhibitory concentration (IC50) in assay [1] was found to be 59.4 ± 2 µM; in assay [2], 10.16 ± 0.03 µM.

`Oc1cc(O)cc(/C=C/c2ccc(O)cc2O)c1` [ORT, oxyresveratrol]: the IC50 in assay [1] was determined as 273 ± 13.2 µM; in assay [2] it was 0.57 ± 0.04 µM.

The IC50 is the point on the concentration scale where inhibition reaches its midpoint.

For the origin of these results see PMC6456241 (Preventive Nutrition and Food Science, 2018).
